Legend:
Assay in all cases: EC50 assay: Ba/F3 stable cell proliferation (CCK-8, 72 h)
Type in all cases: cell-based
Ba/F3 stable cells [1] = biological target: T1, Ba/F3 stable cells (Homo sapiens, UniProt P00533, DUP767-769, cells depend on it); settings: Ba/F3-EGFR V769-D770insASV cells
T1 construct: EC50 Ba/F3-EGFR V769-D770insASV; other: Ba/F3-EGFR V769-D770insASV cells, 72 h, CCK-8
Method: (§1) 4,000 Ba/F3 stable cells/90 μL/well were plated onto 96-well cell culture plate (Grenier, Cat.No. 655180) and incubated at 37° C. with a humidified atmosphere of 5% CO2 for 2 h. Then the cells were treated with 10 μL compounds at serial titration. The final DMSO concentration is 0.1%. The cells treated with 0.1% DMSO (Vetec, Cat.No.V900090) as a positive control (Max), and medium with 0.1% DMSO was as a negative control (Min). Incubated the cells at 37° C. for 72 h. 10 μL the cell proliferation reagent CCK-8 (Dojindo, Cat.No. CK04 1000T) was added into each well and incubated the plate at 37° C. for 4 hours, the GD value was measured by SPECTRAmax plus (Molecular Devices) at 450 nm. Data processing with Graphpad 7.0.

Ba/F3 stable cells [2] = biological target: T2, Ba/F3 stable cells (Homo sapiens, UniProt P00533, DUP768-770, cells depend on it); settings: Ba/F3-EGFR D770-N771insSVD cells
T2 construct: EC50 Ba/F3-EGFR D770-N771insSVD; other: Ba/F3-EGFR D770-N771insSVD cells, 72 h, CCK-8
Method: as §1

Ba/F3 stable cells [3] = biological target: T3, Ba/F3 stable cells (Homo sapiens, UniProt P00533, DUP771-773, cells depend on it); settings: Ba/F3-EGFR H773-V774insNPH cells
T3 construct: EC50 Ba/F3-EGFR H773-V774insNPH; other: Ba/F3-EGFR H773-V774insNPH cells, 72 h, CCK-8
T3 sequence (P00533 with tags, fused parts or gaps DUP771-773): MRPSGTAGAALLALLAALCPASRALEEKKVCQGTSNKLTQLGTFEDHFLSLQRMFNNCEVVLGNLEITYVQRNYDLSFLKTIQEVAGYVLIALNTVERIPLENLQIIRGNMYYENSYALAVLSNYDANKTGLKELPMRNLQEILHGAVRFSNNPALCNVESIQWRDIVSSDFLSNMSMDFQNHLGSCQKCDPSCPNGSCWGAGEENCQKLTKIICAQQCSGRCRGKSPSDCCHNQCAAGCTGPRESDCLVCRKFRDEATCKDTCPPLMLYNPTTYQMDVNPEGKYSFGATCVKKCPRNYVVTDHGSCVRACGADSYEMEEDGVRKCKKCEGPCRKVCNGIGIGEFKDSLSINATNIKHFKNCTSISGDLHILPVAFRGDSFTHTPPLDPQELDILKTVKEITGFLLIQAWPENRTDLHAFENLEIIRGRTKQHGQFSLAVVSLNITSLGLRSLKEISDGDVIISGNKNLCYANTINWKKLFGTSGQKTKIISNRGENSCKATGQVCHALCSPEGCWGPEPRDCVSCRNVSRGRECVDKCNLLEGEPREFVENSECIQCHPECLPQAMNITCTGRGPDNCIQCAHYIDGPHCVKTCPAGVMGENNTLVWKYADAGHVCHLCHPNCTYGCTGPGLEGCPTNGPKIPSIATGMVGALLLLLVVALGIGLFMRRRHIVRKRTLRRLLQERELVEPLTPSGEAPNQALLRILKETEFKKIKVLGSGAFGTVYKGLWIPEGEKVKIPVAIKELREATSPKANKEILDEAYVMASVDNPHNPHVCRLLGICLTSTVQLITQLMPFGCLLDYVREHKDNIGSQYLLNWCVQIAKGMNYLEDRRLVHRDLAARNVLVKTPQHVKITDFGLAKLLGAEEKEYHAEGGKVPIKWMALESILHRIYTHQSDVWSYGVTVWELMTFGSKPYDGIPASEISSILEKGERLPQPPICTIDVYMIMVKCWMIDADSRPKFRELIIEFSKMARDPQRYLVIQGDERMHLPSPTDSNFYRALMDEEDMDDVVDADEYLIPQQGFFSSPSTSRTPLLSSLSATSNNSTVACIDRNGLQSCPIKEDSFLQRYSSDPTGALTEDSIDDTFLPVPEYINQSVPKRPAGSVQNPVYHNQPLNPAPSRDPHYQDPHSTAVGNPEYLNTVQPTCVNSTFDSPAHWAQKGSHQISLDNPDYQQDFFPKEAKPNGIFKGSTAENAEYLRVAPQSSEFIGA
Method: as §1

Ba/F3 stable cells [4] = biological target: T4, Ba/F3 stable cells (Homo sapiens, UniProt P00533, INS763FQEA, cells depend on it); settings: Ba/F3-EGFR A763-Y764insFQEA cells
T4 construct: EC50 Ba/F3-EGFR A763-Y764insFQEA; other: Ba/F3-EGFR A763-Y764insFQEA cells, 72 h, CCK-8
T4 sequence (P00533 with tags, fused parts or gaps INS763FQEA): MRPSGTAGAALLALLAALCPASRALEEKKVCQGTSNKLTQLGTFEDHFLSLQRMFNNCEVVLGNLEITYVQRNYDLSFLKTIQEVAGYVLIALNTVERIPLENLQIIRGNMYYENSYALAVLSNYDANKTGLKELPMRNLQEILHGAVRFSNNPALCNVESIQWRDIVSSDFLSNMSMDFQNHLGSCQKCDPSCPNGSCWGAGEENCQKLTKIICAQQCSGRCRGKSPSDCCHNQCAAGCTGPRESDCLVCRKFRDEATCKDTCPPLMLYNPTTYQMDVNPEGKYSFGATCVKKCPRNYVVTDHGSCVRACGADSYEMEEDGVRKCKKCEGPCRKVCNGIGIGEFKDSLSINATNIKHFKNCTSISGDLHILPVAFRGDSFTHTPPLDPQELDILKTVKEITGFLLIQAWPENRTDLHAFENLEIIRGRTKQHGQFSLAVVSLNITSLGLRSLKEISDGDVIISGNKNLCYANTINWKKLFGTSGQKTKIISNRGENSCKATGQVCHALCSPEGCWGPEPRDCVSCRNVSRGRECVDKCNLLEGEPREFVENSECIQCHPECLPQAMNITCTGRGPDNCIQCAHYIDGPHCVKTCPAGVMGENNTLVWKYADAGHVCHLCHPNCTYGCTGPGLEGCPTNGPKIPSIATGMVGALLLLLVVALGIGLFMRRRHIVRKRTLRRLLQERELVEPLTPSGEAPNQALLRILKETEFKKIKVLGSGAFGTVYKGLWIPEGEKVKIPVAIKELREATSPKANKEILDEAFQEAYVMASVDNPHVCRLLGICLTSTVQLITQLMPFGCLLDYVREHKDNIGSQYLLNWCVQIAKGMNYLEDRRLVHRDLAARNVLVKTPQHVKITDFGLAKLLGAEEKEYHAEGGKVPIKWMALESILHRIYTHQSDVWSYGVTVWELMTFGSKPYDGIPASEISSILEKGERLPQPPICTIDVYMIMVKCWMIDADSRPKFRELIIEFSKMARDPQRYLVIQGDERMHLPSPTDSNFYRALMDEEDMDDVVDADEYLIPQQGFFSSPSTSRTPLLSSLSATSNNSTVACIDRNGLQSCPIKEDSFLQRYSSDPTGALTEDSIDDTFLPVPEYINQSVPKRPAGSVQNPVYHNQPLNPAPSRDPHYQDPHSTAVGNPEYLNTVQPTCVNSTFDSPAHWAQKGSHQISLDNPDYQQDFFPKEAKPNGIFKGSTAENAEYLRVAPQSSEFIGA
Method: as §1

Ba/F3 stable cells [5] = biological target: T5, Ba/F3 stable cells (Homo sapiens, UniProt P00533, T790M/L858R, cells depend on it); settings: Ba/F3-EGFR L858R-T790M cells
T5 construct: EC50 Ba/F3-EGFR L858R-T790M; other: Ba/F3-EGFR L858R-T790M cells, 72 h, CCK-8
Method: as §1

Ba/F3 stable cells [6] = biological target: T6, Ba/F3 stable cells (Homo sapiens, UniProt P04626, DUP772-775, cells depend on it); settings: Ba/F3-HER2 A775-G776insYVMA cells
T6 construct: EC50 Ba/F3-HER2 A775-G776insYVMA; other: Ba/F3-HER2 A775-G776insYVMA cells, 72 h, CCK-8
T6 sequence (P04626 with tags, fused parts or gaps DUP772-775): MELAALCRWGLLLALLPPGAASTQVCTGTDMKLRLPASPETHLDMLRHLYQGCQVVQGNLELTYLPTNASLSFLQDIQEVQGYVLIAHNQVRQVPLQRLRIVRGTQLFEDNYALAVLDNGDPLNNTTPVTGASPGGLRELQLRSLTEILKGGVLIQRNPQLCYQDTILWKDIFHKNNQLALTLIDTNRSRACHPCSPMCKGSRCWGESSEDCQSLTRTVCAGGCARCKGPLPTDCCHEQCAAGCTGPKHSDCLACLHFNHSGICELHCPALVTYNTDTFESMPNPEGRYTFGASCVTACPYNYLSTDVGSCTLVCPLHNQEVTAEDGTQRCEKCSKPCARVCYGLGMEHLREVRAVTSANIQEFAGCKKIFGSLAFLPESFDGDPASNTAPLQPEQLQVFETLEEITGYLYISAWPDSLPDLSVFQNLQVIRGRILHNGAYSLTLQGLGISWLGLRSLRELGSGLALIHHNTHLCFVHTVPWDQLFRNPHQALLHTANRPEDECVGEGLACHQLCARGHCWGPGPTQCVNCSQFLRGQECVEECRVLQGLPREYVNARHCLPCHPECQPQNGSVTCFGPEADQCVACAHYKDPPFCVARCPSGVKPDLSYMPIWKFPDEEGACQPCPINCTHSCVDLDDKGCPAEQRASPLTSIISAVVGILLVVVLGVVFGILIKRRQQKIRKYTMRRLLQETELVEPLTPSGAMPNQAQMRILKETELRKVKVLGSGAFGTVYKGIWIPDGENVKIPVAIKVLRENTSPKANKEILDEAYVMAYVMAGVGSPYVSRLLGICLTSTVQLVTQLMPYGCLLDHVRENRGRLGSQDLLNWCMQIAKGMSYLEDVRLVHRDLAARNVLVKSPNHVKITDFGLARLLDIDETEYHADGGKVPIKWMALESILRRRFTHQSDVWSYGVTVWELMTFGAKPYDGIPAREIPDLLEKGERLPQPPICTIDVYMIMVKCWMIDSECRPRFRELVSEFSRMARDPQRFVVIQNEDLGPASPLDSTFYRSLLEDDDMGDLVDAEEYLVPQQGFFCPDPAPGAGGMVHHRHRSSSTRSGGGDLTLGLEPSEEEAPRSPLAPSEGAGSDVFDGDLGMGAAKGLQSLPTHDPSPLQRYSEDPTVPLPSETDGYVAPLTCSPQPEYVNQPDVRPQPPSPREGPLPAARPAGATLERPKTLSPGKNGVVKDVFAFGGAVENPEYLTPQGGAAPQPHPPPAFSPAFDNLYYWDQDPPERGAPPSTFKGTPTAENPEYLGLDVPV
Method: as §1

T1 sequence (P00533 with tags, fused parts or gaps DUP767-769): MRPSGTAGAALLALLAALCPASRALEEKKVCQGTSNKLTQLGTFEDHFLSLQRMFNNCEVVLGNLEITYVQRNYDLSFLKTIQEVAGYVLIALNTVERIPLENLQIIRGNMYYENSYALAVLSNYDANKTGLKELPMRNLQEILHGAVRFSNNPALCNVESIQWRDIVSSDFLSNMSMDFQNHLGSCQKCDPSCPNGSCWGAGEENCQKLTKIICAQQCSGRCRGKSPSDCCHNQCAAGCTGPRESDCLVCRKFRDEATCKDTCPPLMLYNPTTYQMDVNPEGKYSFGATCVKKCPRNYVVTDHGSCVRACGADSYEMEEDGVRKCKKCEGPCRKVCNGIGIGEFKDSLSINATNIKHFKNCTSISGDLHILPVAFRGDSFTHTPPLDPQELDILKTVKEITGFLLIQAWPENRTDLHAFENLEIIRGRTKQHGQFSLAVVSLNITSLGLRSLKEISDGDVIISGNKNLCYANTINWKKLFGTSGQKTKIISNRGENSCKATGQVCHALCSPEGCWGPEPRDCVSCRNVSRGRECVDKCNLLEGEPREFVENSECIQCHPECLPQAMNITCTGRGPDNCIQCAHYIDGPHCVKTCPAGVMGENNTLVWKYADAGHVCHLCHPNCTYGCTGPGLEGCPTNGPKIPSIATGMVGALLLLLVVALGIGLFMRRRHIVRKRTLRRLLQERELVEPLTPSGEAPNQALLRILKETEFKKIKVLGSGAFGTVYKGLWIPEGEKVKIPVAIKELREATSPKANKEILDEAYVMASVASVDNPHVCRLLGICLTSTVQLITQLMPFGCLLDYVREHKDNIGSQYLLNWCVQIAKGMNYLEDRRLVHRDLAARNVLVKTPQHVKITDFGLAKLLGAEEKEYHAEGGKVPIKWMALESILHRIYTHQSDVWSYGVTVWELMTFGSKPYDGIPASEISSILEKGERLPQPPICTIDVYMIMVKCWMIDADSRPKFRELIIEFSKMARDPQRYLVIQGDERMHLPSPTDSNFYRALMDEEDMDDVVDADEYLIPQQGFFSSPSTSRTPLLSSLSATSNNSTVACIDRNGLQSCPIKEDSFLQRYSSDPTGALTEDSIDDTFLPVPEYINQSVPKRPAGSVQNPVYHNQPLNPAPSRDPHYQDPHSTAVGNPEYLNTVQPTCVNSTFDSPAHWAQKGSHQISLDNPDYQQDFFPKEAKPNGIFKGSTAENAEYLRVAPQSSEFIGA

EC50 (Ba/F3 stable cells [1]) [nM]	EC50 (Ba/F3 stable cells [2]) [nM]	EC50 (Ba/F3 stable cells [3]) [nM]	EC50 (Ba/F3 stable cells [4]) [nM]	EC50 (Ba/F3 stable cells [5]) [nM]	EC50 (Ba/F3 stable cells [6]) [nM]	Compound
≤ 200	≤ 200	≤ 200	≤ 200	≤ 200	≤ 200	C=CC(=O)N1CC(c2cc3c(Nc4ccc(Cl)c(Cl)c4F)ncnc3cc2OC)C1 [Compound 1, 1-(3-(4-((3,4-dichloro-2-fluorophenyl)amino)-7-methoxyquinazolin-6-yl)azetidin-1-yl)prop-2-en-1-one]
> 1000	> 1000	> 1000	> 1000	> 1000	> 1000	C=CC(=O)N1CC(c2cc3c(Nc4ccc(OCc5ccccc5)c(Cl)c4F)ncnc3cc2OC)C1 [Compound 2, 1-(3-(4-((4-(benzyloxy)-3-chloro-2-fluorophenyl)amino)-7-methoxyquinazolin-6-yl)azetidin-1-yl)prop-2-en-1-one]
≤ 200	≤ 200	≤ 200	≤ 200	200 to 1000	≤ 200	C=CC(=O)N1CCC(c2cc3c(Nc4ccc(Cl)c(Cl)c4F)ncnc3cc2OC)C1 (centres unmarked) [Compound 3, 1-(3-(4-((3,4-dichloro-2-fluorophenyl)amino)-7-methoxyquinazolin-6-yl)pyrrolidin-1-yl)prop-2-en-1-one]
≤ 200	200 to 1000	≤ 200	≤ 200	200 to 1000	≤ 200	C=CC(=O)N1CC(c2cc3c(Nc4cccc5ccccc45)ncnc3cc2OC)C1 [Compound 4, 1-(3-(7-methoxy-4-(naphthalen-1-ylamino)quinazolin-6-yl)azetidin-1-yl)prop-2-en-1-one]
≤ 200	200 to 1000	200 to 1000	≤ 200	200 to 1000	200 to 1000	C=CC(=O)N1CC(c2cc3c(Nc4ccc5ccccc5c4)ncnc3cc2OC)C1 [Compound 5, 1-(3-(7-methoxy-4-(naphthalen-2-ylamino)quinazolin-6-yl)azetidin-1-yl)prop-2-en-1-one]
≤ 200	200 to 1000	≤ 200	≤ 200	200 to 1000	≤ 200	C=CC(=O)N1CC(c2cc3c(Nc4ccc(F)c(Cl)c4)ncnc3cc2OC)C1 [Compound 6, 1-(3-(4-((3-chloro-4-fluorophenyl)amino)-7-methoxyquinazolin-6-yl)azetidin-1-yl)prop-2-en-1-one]
200 to 1000	> 1000	200 to 1000	≤ 200	≤ 200	> 1000	C=CC(=O)N1CC(c2cc3c(Nc4ccc(Cl)c5ccccc45)ncnc3cc2OC)C1 [Compound 7, 1-(3-(4-((4-chloronaphthalen-1-yl)amino)-7-methoxyquinazolin-6-yl)azetidin-1-yl)prop-2-en-1-one]
200 to 1000	200 to 1000	200 to 1000	≤ 200	> 1000	200 to 1000	C=CC(=O)N1CC(c2ccc3ncnc(Nc4ccc(Cl)c(Cl)c4F)c3c2)C1 [Compound 8, 1-(3-(4-((3,4-dichloro-2-fluorophenyl)amino)quinazolin-6-yl)azetidin-1-yl)prop-2-en-1-one]
> 1000	> 1000	> 1000	≤ 200	> 1000	200 to 1000	C=CC(=O)N1CCC(c2ccc3ncnc(Nc4ccc(Cl)c(Cl)c4F)c3c2)CC1 [Compound 9, 1-(4-(4-((3,4-dichloro-2-fluorophenyl)amino)quinazolin-6-yl)piperidin-1-yl)prop-2-en-1-one]
≤ 200	200 to 1000	200 to 1000	≤ 200	> 1000	200 to 1000	C=CC(=O)N1CCC(c2cc3c(Nc4ccc(Cl)c(Cl)c4F)ncnc3cc2OC)CC1 [Compound 10, 1-(4-(4-((3,4-dichloro-2-fluorophenyl)amino)-7-methoxyquinazolin-6-yl)piperidin-1-yl)prop-2-en-1-one]
≤ 200	200 to 1000	≤ 200	≤ 200	> 1000	200 to 1000	C=CC(=O)N1CC(c2cc3c(Nc4ccc5[nH]ccc5c4)ncnc3cc2OC)C1 [Compound 11, 1-(3-(4-((1H-indol-5-yl)amino)-7-methoxyquinazolin-6-yl)azetidin-1-yl)prop-2-en-1-one]
> 1000	> 1000	> 1000	> 1000	> 1000	> 1000	C=CC(=O)N1CC(c2cc3c(Nc4ccc5c(c4)CCN5)ncnc3cc2OC)C1 [Compound 12, 1-(3-(4-(indolin-5-ylamino)-7-methoxyquinazolin-6-yl)azetidin-1-yl)prop-2-en-1-one]
200 to 1000	> 1000	200 to 1000	≤ 200	> 1000	> 1000	C=CC(=O)N1CC(c2cc3c(NCc4ccc(F)cc4)ncnc3cc2OC)C1 [Compound 13, 1-(3-(4-((4-fluorobenzyl)amino)-7-methoxyquinazolin-6-yl)azetidin-1-yl)prop-2-en-1-one]
≤ 200	> 1000	≤ 200	≤ 200	≤ 200	> 1000	C=CC(=O)N1CC(c2cc3c(Nc4ccc(F)c5ccccc45)ncnc3cc2OC)C1 [Compound 14, 1-(3-(4-((4-fluoronaphthalen-1-yl)amino)-7-methoxyquinazolin-6-yl)azetidin-1-yl)prop-2-en-1-one]
≤ 200	200 to 1000	200 to 1000	≤ 200	200 to 1000	> 1000	C=CC(=O)N1CC(c2cc3c(NCc4cccc(Cl)c4)ncnc3cc2OC)C1 [Compound 15, 1-(3-(4-((3-chlorobenzyl)amino)-7-methoxyquinazolin-6-yl)azetidin-1-yl)prop-2-en-1-one]
≤ 200	≤ 200	≤ 200	≤ 200	≤ 200	≤ 200	C=CC(=O)N1CC(c2cc3c(Nc4ccc(F)c(Cl)c4F)ncnc3cc2OC)C1 [Compound 16, 1-(3-(4-((3-chloro-2,4-difluorophenyl)amino)-7-methoxyquinazolin-6-yl)azetidin-1-yl)prop-2-en-1-one]
≤ 200	≤ 200	≤ 200	≤ 200	≤ 200	≤ 200	C=CC(=O)N1CC(c2cc3c(Nc4ccc(Cl)c(Cl)c4F)ncnc3cc2OCCOC)C1 [Compound 17, 1-(3-(4-((3,4-dichloro-2-fluorophenyl)amino)-7-(2-methoxyethoxy)quinazolin-6-yl)azetidin-1-yl)prop-2-en-1-one]
≤ 200	≤ 200	≤ 200	≤ 200	≤ 200	≤ 200	C=CC(=O)N1CC(c2cc3c(Nc4ccc(Cl)c(Cl)c4F)ncnc3cc2OCC)C1 [Compound 18, 1-(3-(4-((3,4-dichloro-2-fluorophenyl)amino)-7-ethoxyquinazolin-6-yl)azetidin-1-yl)prop-2-en-1-one]
≤ 200	≤ 200	≤ 200	≤ 200	≤ 200	≤ 200	C=CC(=O)N1CC(c2cc3c(Nc4ccc(Cl)c(Cl)c4F)ncnc3cc2OCCO)C1 [Compound 19, 1-(3-(4-((3,4-dichloro-2-fluorophenyl)amino)-7-(2-hydroxyethoxy)quinazolin-6-yl)azetidin-1-yl)prop-2-en-1-one]
			200 to 1000			C=CC(=O)N1CC(c2cc3c(Nc4ccc(Cl)c(Cl)c4F)ncnc3cc2O[C@H]2CCOC2)C1 [Compound 24, (S)-1-(3-(4-((3,4-dichloro-2-fluorophenyl)amino)-7-((tetrahydrofuran-3-yl)oxy)quinazolin-6-yl)azetidin-1-yl)prop-2-en-1-one]
					≤ 200	C=CC(=O)N1CCC(Oc2cc3c(Nc4ccc(Cl)c(Cl)c4F)ncnc3cc2OC)CC1 [Compound 133, 1-(4-((4-((3,4-dichloro-2-fluorophenyl)amino)-7-methoxyquinazolin-6-yl)oxy)piperidin-1-yl)prop-2-en-1-one]
